{"source": "ChEMBL document CHEMBL5052842", "about": "“Pharmaceutical compounds and their use as inhibitors of ubiquitin specific protease 19 (usp19)” (2020)", "data": [{"target": "T1, Ubiquitin carboxyl-terminal hydrolase 19 (Homo sapiens, UniProt O94966)", "T1 sequence (O94966 whole entry)": "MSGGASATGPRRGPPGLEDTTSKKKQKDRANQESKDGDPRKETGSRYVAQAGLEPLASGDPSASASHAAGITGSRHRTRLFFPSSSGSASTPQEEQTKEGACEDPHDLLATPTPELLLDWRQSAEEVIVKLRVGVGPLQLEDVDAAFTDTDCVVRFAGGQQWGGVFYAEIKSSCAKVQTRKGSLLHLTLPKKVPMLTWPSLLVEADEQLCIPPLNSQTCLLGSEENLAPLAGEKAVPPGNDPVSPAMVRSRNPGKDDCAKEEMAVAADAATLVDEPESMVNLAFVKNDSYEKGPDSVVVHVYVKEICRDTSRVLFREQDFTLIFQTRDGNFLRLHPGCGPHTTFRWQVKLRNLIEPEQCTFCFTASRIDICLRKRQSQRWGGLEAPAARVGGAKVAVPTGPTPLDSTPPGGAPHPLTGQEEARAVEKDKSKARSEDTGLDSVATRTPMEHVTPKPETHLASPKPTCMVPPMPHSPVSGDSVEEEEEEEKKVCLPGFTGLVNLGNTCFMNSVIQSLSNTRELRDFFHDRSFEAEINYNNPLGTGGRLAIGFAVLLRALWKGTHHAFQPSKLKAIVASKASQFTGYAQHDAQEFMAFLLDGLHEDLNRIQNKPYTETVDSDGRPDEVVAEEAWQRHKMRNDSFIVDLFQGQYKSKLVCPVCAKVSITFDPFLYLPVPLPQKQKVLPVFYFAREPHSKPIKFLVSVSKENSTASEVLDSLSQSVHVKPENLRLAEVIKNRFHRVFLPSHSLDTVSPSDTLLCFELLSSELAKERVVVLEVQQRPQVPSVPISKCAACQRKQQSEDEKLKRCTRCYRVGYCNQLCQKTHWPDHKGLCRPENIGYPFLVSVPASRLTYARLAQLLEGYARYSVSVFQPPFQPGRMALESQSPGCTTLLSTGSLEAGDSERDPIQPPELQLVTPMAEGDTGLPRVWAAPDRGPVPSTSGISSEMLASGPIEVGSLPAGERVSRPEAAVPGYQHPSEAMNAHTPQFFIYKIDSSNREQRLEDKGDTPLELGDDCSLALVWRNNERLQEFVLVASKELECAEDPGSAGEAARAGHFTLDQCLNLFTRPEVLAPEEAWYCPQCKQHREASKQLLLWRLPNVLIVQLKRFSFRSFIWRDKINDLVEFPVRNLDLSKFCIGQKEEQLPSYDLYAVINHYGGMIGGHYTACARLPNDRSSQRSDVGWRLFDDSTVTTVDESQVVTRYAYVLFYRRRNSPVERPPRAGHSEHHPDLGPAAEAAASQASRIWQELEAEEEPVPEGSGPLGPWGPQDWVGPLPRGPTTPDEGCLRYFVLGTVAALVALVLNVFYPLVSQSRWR", "experiment": "Inhibition of C-terminal His6-tagged recombinant human USP19 using iso-peptide ubiquitin-Lys-TAMRA as substrate incubated for 30 mins and measured after 90 mins by fluorescent polarization assay", "units": {"IC50": "nM"}, "values": [{"smiles": "CC1(C)CN(C(=O)N2CCNC[C@H]2c2ccccc2)CC[C@@]1(O)Cn1ccc(-c2ccccc2)cc1=O", "IC50": "< 500"}, {"smiles": "O=C(NCc1ccc(F)c(F)c1)N1CC[C@@](O)(Cn2cnc(-c3ccccc3)cc2=O)C2(CCCC2)C1", "IC50": "< 500"}, {"smiles": "O=C(N1CCC(O)(Cn2cnc(-c3ccccc3)cc2=O)C2(CCCC2)C1)N1CCOCC1c1cccs1", "note": "(configuration not stated)", "IC50": "< 500"}, {"smiles": "Cn1cc(-c2cc(=O)n(C[C@]3(O)CCN(C(=O)N4CCOC[C@H]4c4ccc(F)cc4)CC34CCCC4)cn2)cn1", "IC50": "< 500"}, {"smiles": "CN(C)c1cc(=O)n(C[C@]2(O)CCN(C(=O)N3CCOC[C@H]3c3ccccc3)CC23CCCC3)cn1", "IC50": "< 500"}, {"smiles": "Cn1cc(-c2cc(=O)n(C[C@]3(O)CCN(C(=O)N4CCNC[C@H]4c4ccccc4)CC34CCCC4)cn2)cn1", "IC50": "< 500"}, {"smiles": "O=C(N1CCC(O)(Cn2cnc(-c3ccccc3)cc2=O)C2(CCCCC2)C1)N1CCOC[C@H]1c1ccccc1", "note": "(some centres not stated)", "IC50": "< 500"}, {"smiles": "O=C(N1CC[C@@](O)(Cn2cnc(Cl)cc2=O)C2(CCCC2)C1)N1CCOC[C@H]1c1ccc(F)cc1", "IC50": "< 500"}, {"smiles": "Cn1nccc1-c1cc(=O)n(C[C@]2(O)CCN(C(=O)N3CCOC[C@H]3c3ccc(F)cc3)CC23CCCC3)cn1", "IC50": "< 500"}, {"smiles": "O=C(N1CC[C@@](O)(Cn2cnc(-c3ccccc3)cc2=O)C2(CCCC2)C1)N1CCOC[C@H]1c1ccc(F)cc1", "IC50": "< 500"}, {"smiles": "CC1(C)CN(C(=O)N2CCOC[C@H]2c2ccccc2)CC[C@@]1(O)Cn1ccc(-c2ccccc2)cc1=O", "IC50": "< 500"}, {"smiles": "O=C(N1CC[C@@](O)(Cn2cnc(C3CC3)cc2=O)C2(CCCC2)C1)N1CCNC[C@H]1c1ccccc1", "IC50": "< 500"}, {"smiles": "O=C(N1CC[C@@](O)(Cn2cnc(N3CCCC3)cc2=O)C2(CCCC2)C1)N1CCNC[C@H]1c1ccccc1", "IC50": "< 500"}, {"smiles": "O=C(N1CC[C@@](O)(Cn2ccc(-c3ccccc3)cc2=O)C2(CCCC2)C1)N1CCNC[C@H]1c1ccccc1", "IC50": "< 500"}, {"smiles": "CN(C)C(=O)c1cn(C[C@]2(O)CCN(C(=O)N3CCOC[C@H]3c3ccccc3)CC2(C)C)c(=O)cc1-c1ccccc1", "IC50": "< 500"}, {"smiles": "Cc1cc(=O)n(C[C@]2(O)CCN(C(=O)N3CCNC[C@H]3c3ccccc3)CC23CCCC3)cn1", "IC50": "< 500"}, {"smiles": "CN1CCN(C(=O)N2CC[C@@](O)(Cn3cnc(-c4ccccc4)cc3=O)C3(CCCC3)C2)[C@H](c2ccccc2)C1", "IC50": "< 500"}, {"smiles": "O=C(N1CC[C@@](O)(Cn2cnc(N3CCCC3)cc2=O)C2(CCCC2)C1)N1CCOC[C@H]1c1ccccc1", "IC50": "< 500"}, {"smiles": "O=C(N1CC[C@@](O)(Cn2cnc(-c3ccccc3)cc2=O)C2(CCCC2)C1)N1CCNC[C@H]1c1ccccc1", "IC50": "< 500"}, {"smiles": "O=C(N1CC[C@@](O)(Cn2cnc(C3CC3)cc2=O)C2(CCCC2)C1)N1CCOC[C@H]1c1ccccc1", "IC50": "< 500"}, {"smiles": "O=C(N[C@H](c1ccccc1)C(F)(F)F)N1CC[C@@](O)(Cn2cnc(-c3ccccc3)cc2=O)C2(CCCC2)C1", "IC50": "< 500"}, {"smiles": "O=C(NCc1c(F)cccc1F)N1CC[C@@](O)(Cn2cnc(-c3ccccc3)cc2=O)C2(CCCC2)C1", "IC50": "< 500"}, {"smiles": "O=C(N1CCC(O)(Cn2cnc(-c3ccccc3)cc2=O)C2(CCC2)C1)N1CCOC[C@H]1c1ccccc1", "note": "(some centres not stated)", "IC50": "< 500"}, {"smiles": "Cn1cc(-c2cc(=O)n(C[C@]3(O)CCN(C(=O)N4CCOC[C@H]4c4ccccc4)CC34CCCC4)cn2)cn1", "IC50": "< 500"}, {"smiles": "O=C(N1CCC(O)(Cn2ncc(-c3ccccc3)cc2=O)C2(CCCC2)C1)N1CCOC[C@H]1c1ccccc1", "note": "(some centres not stated)", "IC50": "< 500"}, {"smiles": "O=C(NCc1ccccc1F)N1CCC(O)(Cn2cnc(-c3ccccc3)cc2=O)C2(CCCC2)C1", "note": "(configuration not stated)", "IC50": "< 500"}, {"smiles": "O=C(N1CCC(O)(Cn2cnc(-c3ccccc3)cc2=O)C2(CCCCC2)C1)N1CCNC[C@H]1c1ccccc1", "note": "(some centres not stated)", "IC50": "< 500"}, {"smiles": "O=C(N1CCC(O)(Cn2cnc(-c3ccccc3)cc2=O)CC1)N1CCNC[C@H]1c1ccccc1", "IC50": "< 500"}, {"smiles": "Cn1nccc1-c1cc(=O)n(C[C@]2(O)CCN(C(=O)N3CCNC[C@H]3c3ccccc3)CC23CCCC3)cn1", "IC50": "< 500"}, {"smiles": "O=C(NCc1cccc(F)c1F)N1CC[C@@](O)(Cn2cnc(-c3ccccc3)cc2=O)C2(CCCC2)C1", "IC50": "< 500"}, {"smiles": "Cn1nccc1-c1cc(=O)n(C[C@]2(O)CCN(C(=O)N3CCOC[C@H]3c3ccccc3)CC23CCCC3)cn1", "IC50": "< 500"}, {"smiles": "O=C(NCc1ccc(F)cc1F)N1CC[C@@](O)(Cn2cnc(-c3ccccc3)cc2=O)C2(CCCC2)C1", "IC50": "< 500"}]}]}
